Results reported in the NIST ThermoML archive (doi:10.1021/acs.jced.6b00536).
“And” between values parts separate entries of the source, which are not always exact repeats. Identical values can stand only once. ± gives the expanded uncertainty stated by the source.

Settings: Gas, Frequency=0.05 MHz, Single path-length method

FC(F)(F)C(F)(F)F [hexafluoroethane]
Settings | speed of sound
250.8 K, 68.9 kPa | 127.66 ± 0.09 m/s
250.8 K, 77.3 kPa | 127.49 ± 0.09 m/s
250.8 K, 95 kPa | 127.13 ± 0.09 m/s
250.8 K, 108.8 kPa | 126.85 ± 0.1 m/s
250.8 K, 128.5 kPa | 126.44 ± 0.1 m/s
250.8 K, 149.2 kPa | 126.04 ± 0.1 m/s
250.8 K, 169.4 kPa | 125.61 ± 0.1 m/s
250.8 K, 177.2 kPa | 125.45 ± 0.1 m/s
250.8 K, 195.4 kPa | 125.08 ± 0.1 m/s
250.8 K, 211.5 kPa | 124.74 ± 0.1 m/s
250.8 K, 225.5 kPa | 124.44 ± 0.1 m/s
256.2 K, 70.4 kPa | 128.95 ± 0.09 m/s
256.2 K, 78.9 kPa | 128.78 ± 0.09 m/s
256.2 K, 97 kPa | 128.43 ± 0.09 m/s
256.2 K, 111.1 kPa | 128.17 ± 0.09 m/s
256.2 K, 131.3 kPa | 127.77 ± 0.1 m/s
256.2 K, 152.5 kPa | 127.38 ± 0.1 m/s
256.2 K, 173.1 kPa | 126.97 ± 0.1 m/s
256.2 K, 181.1 kPa | 126.82 ± 0.1 m/s
256.2 K, 199.7 kPa | 126.45 ± 0.1 m/s
256.2 K, 216.2 kPa | 126.14 ± 0.1 m/s
256.2 K, 230.6 kPa | 125.83 ± 0.1 m/s
261.5 K, 71.8 kPa | 130.24 ± 0.09 m/s
261.5 K, 80.5 kPa | 130.09 ± 0.09 m/s
261.5 K, 99 kPa | 129.73 ± 0.09 m/s
261.5 K, 113.4 kPa | 129.49 ± 0.09 m/s
261.5 K, 134.1 kPa | 129.1 ± 0.09 m/s
261.5 K, 155.7 kPa | 128.71 ± 0.09 m/s
261.5 K, 176.8 kPa | 128.32 ± 0.1 m/s
261.5 K, 185 kPa | 128.19 ± 0.1 m/s
261.5 K, 204 kPa | 127.83 ± 0.1 m/s
261.5 K, 221 kPa | 127.51 ± 0.1 m/s
261.5 K, 235.7 kPa | 127.24 ± 0.1 m/s
266.8 K, 73.3 kPa | 131.5 ± 0.09 m/s
266.8 K, 82.1 kPa | 131.33 ± 0.09 m/s
266.8 K, 101.1 kPa | 131.02 ± 0.09 m/s
266.8 K, 115.7 kPa | 130.77 ± 0.09 m/s
266.8 K, 136.8 kPa | 130.41 ± 0.09 m/s
266.8 K, 158.9 kPa | 130.04 ± 0.09 m/s
266.8 K, 180.5 kPa | 129.65 ± 0.09 m/s
266.8 K, 188.9 kPa | 129.52 ± 0.09 m/s
266.8 K, 208.3 kPa | 129.18 ± 0.1 m/s
266.8 K, 225.6 kPa | 128.87 ± 0.1 m/s
266.8 K, 240.8 kPa | 128.62 ± 0.1 m/s
272.1 K, 74.7 kPa | 132.77 ± 0.09 m/s
272.1 K, 83.7 kPa | 132.62 ± 0.09 m/s
272.1 K, 103.1 kPa | 132.3 ± 0.09 m/s
272.1 K, 118 kPa | 132.05 ± 0.09 m/s
272.1 K, 139.6 kPa | 131.72 ± 0.09 m/s
272.1 K, 162.1 kPa | 131.35 ± 0.09 m/s
272.1 K, 184.3 kPa | 131.01 ± 0.09 m/s
272.1 K, 192.8 kPa | 130.85 ± 0.09 m/s
272.1 K, 212.6 kPa | 130.53 ± 0.09 m/s
272.1 K, 230.5 kPa | 130.23 ± 0.1 m/s
272.1 K, 246.8 kPa | 129.96 ± 0.1 m/s
277.4 K, 76.2 kPa | 134.03 ± 0.09 m/s
277.4 K, 85.4 kPa | 133.89 ± 0.09 m/s
277.4 K, 105.1 kPa | 133.57 ± 0.09 m/s
277.4 K, 120.4 kPa | 133.33 ± 0.09 m/s
277.4 K, 142.3 kPa | 132.99 ± 0.09 m/s
277.4 K, 165.4 kPa | 132.66 ± 0.09 m/s
277.4 K, 188 kPa | 132.3 ± 0.09 m/s
277.4 K, 196.7 kPa | 132.17 ± 0.09 m/s
277.4 K, 216.9 kPa | 131.84 ± 0.09 m/s
277.4 K, 235.2 kPa | 131.58 ± 0.09 m/s
277.4 K, 251.8 kPa | 131.3 ± 0.1 m/s
282.7 K, 77.6 kPa | 135.27 ± 0.09 m/s
282.7 K, 87 kPa | 135.13 ± 0.09 m/s
282.7 K, 107.1 kPa | 134.83 ± 0.09 m/s
282.7 K, 122.7 kPa | 134.61 ± 0.09 m/s
282.7 K, 145.1 kPa | 134.28 ± 0.09 m/s
282.7 K, 168.6 kPa | 133.93 ± 0.09 m/s
282.7 K, 191.6 kPa | 133.6 ± 0.09 m/s
282.7 K, 200.5 kPa | 133.47 ± 0.09 m/s
282.7 K, 221.3 kPa | 133.16 ± 0.09 m/s
282.7 K, 239.9 kPa | 132.89 ± 0.09 m/s
282.7 K, 256.9 kPa | 132.64 ± 0.1 m/s
287.9 K, 79.1 kPa | 136.49 ± 0.09 m/s
287.9 K, 88.6 kPa | 136.37 ± 0.09 m/s
287.9 K, 109.1 kPa | 136.08 ± 0.09 m/s
287.9 K, 125 kPa | 135.85 ± 0.09 m/s
287.9 K, 147.9 kPa | 135.54 ± 0.09 m/s
287.9 K, 171.8 kPa | 135.21 ± 0.09 m/s
287.9 K, 195.4 kPa | 134.9 ± 0.09 m/s
287.9 K, 204.4 kPa | 134.76 ± 0.09 m/s
287.9 K, 225.6 kPa | 134.47 ± 0.09 m/s
287.9 K, 244.5 kPa | 134.2 ± 0.09 m/s
287.9 K, 262 kPa | 133.96 ± 0.09 m/s
293.2 K, 80.5 kPa | 137.71 ± 0.09 m/s
293.2 K, 85.4 kPa | 137.65 ± 0.09 m/s
293.2 K, 90.3 kPa | 137.61 ± 0.09 m/s
293.2 K, 111.1 kPa | 137.3 ± 0.09 m/s and 137.31 ± 0.09 m/s
293.2 K, 127.3 kPa | 137.08 ± 0.09 m/s and 137.09 ± 0.09 m/s
293.2 K, 150.6 kPa | 136.79 ± 0.09 m/s and 136.8 ± 0.09 m/s
293.2 K, 175 kPa | 136.48 ± 0.09 m/s
293.2 K, 175.1 kPa | 136.49 ± 0.09 m/s
293.2 K, 199 kPa | 136.16 ± 0.09 m/s
293.2 K, 203.7 kPa | 136.09 ± 0.09 m/s
293.2 K, 208.3 kPa | 136.06 ± 0.09 m/s
293.2 K, 229.9 kPa | 135.75 ± 0.09 m/s and 135.74 ± 0.09 m/s
293.2 K, 249.1 kPa | 135.49 ± 0.09 m/s
293.2 K, 249.2 kPa | 135.5 ± 0.09 m/s
293.2 K, 265.6 kPa | 135.26 ± 0.09 m/s
293.2 K, 267 kPa | 135.26 ± 0.09 m/s
298.5 K, 82 kPa | 138.94 ± 0.09 m/s
298.5 K, 91.9 kPa | 138.8 ± 0.09 m/s
298.5 K, 113.1 kPa | 138.55 ± 0.09 m/s
298.5 K, 129.7 kPa | 138.33 ± 0.09 m/s
298.5 K, 153.4 kPa | 138.03 ± 0.09 m/s
298.5 K, 178.3 kPa | 137.71 ± 0.09 m/s
298.5 K, 202.8 kPa | 137.42 ± 0.09 m/s
298.5 K, 212.2 kPa | 137.32 ± 0.09 m/s
298.5 K, 234.2 kPa | 137.02 ± 0.09 m/s
298.5 K, 253.9 kPa | 136.77 ± 0.09 m/s
298.5 K, 272 kPa | 136.54 ± 0.09 m/s
303.7 K, 83.4 kPa | 140.14 ± 0.09 m/s
303.7 K, 93.5 kPa | 140.03 ± 0.09 m/s
303.7 K, 115.2 kPa | 139.76 ± 0.09 m/s
303.7 K, 132 kPa | 139.56 ± 0.09 m/s
303.7 K, 156.2 kPa | 139.26 ± 0.09 m/s
303.7 K, 181.5 kPa | 138.98 ± 0.09 m/s
303.7 K, 206.4 kPa | 138.67 ± 0.09 m/s
303.7 K, 216.1 kPa | 138.57 ± 0.09 m/s
303.7 K, 238.5 kPa | 138.3 ± 0.09 m/s
303.7 K, 258.6 kPa | 138.06 ± 0.09 m/s
303.7 K, 277.2 kPa | 137.85 ± 0.09 m/s
308.9 K, 84.9 kPa | 141.33 ± 0.09 m/s
308.9 K, 95.1 kPa | 141.19 ± 0.09 m/s
308.9 K, 117.2 kPa | 140.94 ± 0.09 m/s
308.9 K, 134.2 kPa | 140.73 ± 0.09 m/s
308.9 K, 158.9 kPa | 140.47 ± 0.09 m/s
308.9 K, 184.7 kPa | 140.18 ± 0.09 m/s
308.9 K, 210.1 kPa | 139.9 ± 0.09 m/s
308.9 K, 219.9 kPa | 139.79 ± 0.09 m/s
308.9 K, 242.8 kPa | 139.54 ± 0.09 m/s
308.9 K, 263.3 kPa | 139.32 ± 0.09 m/s
308.9 K, 282.1 kPa | 139.06 ± 0.09 m/s
314.1 K, 86.3 kPa | 142.49 ± 0.09 m/s
314.1 K, 96.8 kPa | 142.38 ± 0.09 m/s
314.1 K, 119.2 kPa | 142.15 ± 0.09 m/s
314.1 K, 136.6 kPa | 141.94 ± 0.09 m/s
314.1 K, 161.6 kPa | 141.69 ± 0.09 m/s
314.1 K, 187.9 kPa | 141.4 ± 0.09 m/s
314.1 K, 213.8 kPa | 141.12 ± 0.09 m/s
314.1 K, 223.7 kPa | 140.99 ± 0.09 m/s
314.1 K, 247.1 kPa | 140.76 ± 0.09 m/s
314.1 K, 267.9 kPa | 140.53 ± 0.09 m/s
314.1 K, 287.2 kPa | 140.33 ± 0.09 m/s
319.3 K, 87.7 kPa | 143.67 ± 0.09 m/s
319.3 K, 98.4 kPa | 143.57 ± 0.09 m/s
319.3 K, 121.2 kPa | 143.32 ± 0.09 m/s
319.3 K, 138.9 kPa | 143.13 ± 0.09 m/s
319.3 K, 164.4 kPa | 142.88 ± 0.09 m/s
319.3 K, 191.2 kPa | 142.61 ± 0.09 m/s
319.3 K, 217.5 kPa | 142.34 ± 0.09 m/s
319.3 K, 227.6 kPa | 142.24 ± 0.09 m/s
319.3 K, 251.3 kPa | 141.97 ± 0.09 m/s
319.3 K, 272.7 kPa | 141.78 ± 0.09 m/s
319.3 K, 292.2 kPa | 141.56 ± 0.09 m/s
324.5 K, 89.2 kPa | 144.83 ± 0.09 m/s
324.5 K, 100 kPa | 144.71 ± 0.09 m/s
324.5 K, 123.2 kPa | 144.49 ± 0.09 m/s
324.5 K, 141.2 kPa | 144.31 ± 0.09 m/s
324.5 K, 167.2 kPa | 144.07 ± 0.09 m/s
324.5 K, 194.4 kPa | 143.8 ± 0.09 m/s
324.5 K, 221.2 kPa | 143.52 ± 0.09 m/s
324.5 K, 231.5 kPa | 143.44 ± 0.09 m/s
324.5 K, 255.7 kPa | 143.2 ± 0.09 m/s
324.5 K, 277.3 kPa | 142.99 ± 0.09 m/s
324.5 K, 297.1 kPa | 142.79 ± 0.09 m/s
